According to paper PMC10376326, “Novel Acylselenourea Derivatives: Dual Molecules with Anticancer and Radical Scavenging Activity” (Antioxidants, 2023):

tested on: HTB-54 (lung) cancer cell line; experiment: MTT cell viability assay, HTB-54; assay type: cell-based, human; details: Homo sapiens, HTB-54, 48 h, read-out: Cell growth %, HTB-54, 10 µM, 48 h, MTT
Procedure: (§1) Cell lines were purchased from the American Type Culture Collection (ATCC). Cell lines MDA-MB-231, HTB-54, DU-145, and BEAS-2B were cultured in RPMI 1640 medium (Gibco, Thermo Fisher Scientific, Gaithersburg, MD, USA) supplemented with 10% fetal bovine serum (FBS; Gibco), 100 units/mL penicillin, and […] streptomycin (Gibco). HT-29 cell line was grown in McCoy’s 5A (Gibco), 10% FBS, 100 units/mL penicillin, and 100 μg/mL streptomycin. Cells were maintained at 37 °C and 5% CO2. The culture medium was changed every three days.
(§2) The cell viability of each compound was measured by MTT colorimetric assay. Each compound was dissolved in DMSO at a concentration of 0.01 M. Each compound was tested at two different concentrations (10 and 50 µM) in MDA-MB-231 (breast), HTB-54 (lung), DU-145 (prostate), and HT-29 (colon) human cancer cell lines. Serial dilutions were prepared with supplemented culture medium. […] IC50 and selectivity indexes (SI) were determined.
(§3) Briefly, 1 × 10^4 tumor cells per well were grown in 96-well plates for 24 h. Then, these cells were incubated for 48 h with either DMSO (control) or a different concentration of each of the tested compounds. The cell viability was determined by adding 20 μL of MTT two hours and a half before the termination point. After this time, the culture medium was removed. The resulting formazan crystals were dissolved in 50 μL of DMSO, and the absorbance was measured at 570 nm. Results are expressed as % cell growth. The data were obtained from at least three independent experiments performed in quadruplicate.

| SMILES | activity at 10 µM [%] |
| --- | --- |
| C=CCNC(=[Se])NC(=O)c1cccc(C(=O)NC(=[Se])NCC=C)c1 [Compound 10.II, N^1,N^3-bis(allylcarbamoselenoyl)isophthalamide] | 52.6 ± 10.5 |

same assay, conditions: Homo sapiens, HTB-54, 48 h, read-out: Cell growth %, HTB-54, 50 µM, 48 h, MTT

| SMILES | activity at 50 µM [%] |
| --- | --- |
| C=CCNC(=[Se])NC(=O)c1cccc(C(=O)NC(=[Se])NCC=C)c1 [Compound 10.II, N^1,N^3-bis(allylcarbamoselenoyl)isophthalamide] | 43.5 ± 17.6 |

same assay, conditions: IC50 (BEAS-2B)/IC50 (HTB-54)

| SMILES | SI |
| --- | --- |
| C=CCNC(=[Se])NC(=O)c1cccc(C(=O)NC(=[Se])NCC=C)c1 [Compound 10.II, N^1,N^3-bis(allylcarbamoselenoyl)isophthalamide] | 0.7 |

tested on: non-malignant BEAS-2B lung cell line; experiment: MTT cell viability assay, BEAS-2B; assay type: cell-based; details: Homo sapiens, normal lung, 48 h
Procedure: as §1, §2, §3

| SMILES | IC50 [µM] |
| --- | --- |
| C=CCNC(=[Se])NC(=O)c1cccc(C(=O)NC(=[Se])NCC=C)c1 [Compound 10.II, N^1,N^3-bis(allylcarbamoselenoyl)isophthalamide] | 29.9 ± 5 |

tested on: HT-29 (colon) cancer cell line; experiment: MTT cell viability assay, HT-29; assay type: cell-based; details: Homo sapiens, HT-29, 48 h, HT-29, 10 µM, read-out: Cell growth %
Procedure: as §1, §2, §3

| SMILES | activity at 10 µM [%] |
| --- | --- |
| C=CCNC(=[Se])NC(=O)c1cccc(C(=O)NC(=[Se])NCC=C)c1 [Compound 10.II, N^1,N^3-bis(allylcarbamoselenoyl)isophthalamide] | 47.8 ± 8.7 |

same assay, conditions: Homo sapiens, HT-29, 48 h, HT-29, 50 µM, read-out: Cell growth %

| SMILES | activity at 50 µM [%] |
| --- | --- |
| C=CCNC(=[Se])NC(=O)c1cccc(C(=O)NC(=[Se])NCC=C)c1 [Compound 10.II, N^1,N^3-bis(allylcarbamoselenoyl)isophthalamide] | 46.4 ± 4.8 |

tested on: DU-145 cells; experiment: Protective effects against H2O2-induced oxidative stress in DU-145 cells (MTT); assay type: cell-based, human; details: increase-fold of cell survival; compound 0.0003 mg/mL, 200 µM H2O2, DU-145
Procedure: Cells were treated with the selected compounds and then oxidative damage to DU-145 cells was induced using different concentrations of H2O2 (200, 250 and 300 µM), and cell viability was assessed by the MTT method. Briefly, 2.5 × 10^4 DU-145 cells per well were added in 96-well plates. After 24 h of incubation, DMSO, 1.I, 2.I, 5.I, 7.II, 10.II, and ascorbic acid were added to each well at two different concentrations (0.0015 mg/mL and 0.0003 mg/mL) and incubated for 1 h. After that, H2O2 was added at the concentrations of 200, 250, and 300 µM, and the cells were incubated for 12 h to induce cell damage. MTT assay was used to measure cell viability. For each treatment, the mean cell viability was calculated from three independent experiments. The DMSO-treated controls were assigned with a cell viability value of 100% (Vcontrol). The results are expressed as a cell growth inhibition % caused by H2O2 and the increased fold of cell survival, as follows: • Cells without compounds, only treated with H2O2: (2) % Cell growth inhibition=Acontrol - Asample/Acontrol × 100
• Cells treated with compounds and H2O2:
(3) % Cell growth inhibition=Asample (compound) - Asample (compound+H2O2)/Acontrol × 100
(4) Increase-fold of cell survival=% cell growth inhibition (H2O2)/% cell growth inhibition (compound+ H2O2)
The standard error of the mean (SEM) was calculated in at least three independent experiments performed in quadruplicates.

| SMILES | Increase-fold |
| --- | --- |
| C=CCNC(=[Se])NC(=O)c1cccc(C(=O)NC(=[Se])NCC=C)c1 [Compound 10.II, N^1,N^3-bis(allylcarbamoselenoyl)isophthalamide] | 0.8 ± 0.4 |

same assay, conditions: increase-fold of cell survival; compound 0.0003 mg/mL, 250 µM H2O2, DU-145

| SMILES | Increase-fold |
| --- | --- |
| C=CCNC(=[Se])NC(=O)c1cccc(C(=O)NC(=[Se])NCC=C)c1 [Compound 10.II, N^1,N^3-bis(allylcarbamoselenoyl)isophthalamide] | 1.0 ± 0.3 |

same assay, conditions: increase-fold of cell survival; compound 0.0003 mg/mL, 300 µM H2O2, DU-145

| SMILES | Increase-fold |
| --- | --- |
| C=CCNC(=[Se])NC(=O)c1cccc(C(=O)NC(=[Se])NCC=C)c1 [Compound 10.II, N^1,N^3-bis(allylcarbamoselenoyl)isophthalamide] | 1.0 ± 0.2 |

same assay, conditions: increase-fold of cell survival; compound 0.0015 mg/mL, 200 µM H2O2, DU-145

| SMILES | Increase-fold |
| --- | --- |
| C=CCNC(=[Se])NC(=O)c1cccc(C(=O)NC(=[Se])NCC=C)c1 [Compound 10.II, N^1,N^3-bis(allylcarbamoselenoyl)isophthalamide] | 1.0 ± 0.6 |

same assay, conditions: increase-fold of cell survival; compound 0.0015 mg/mL, 250 µM H2O2, DU-145

| SMILES | Increase-fold |
| --- | --- |
| C=CCNC(=[Se])NC(=O)c1cccc(C(=O)NC(=[Se])NCC=C)c1 [Compound 10.II, N^1,N^3-bis(allylcarbamoselenoyl)isophthalamide] | 1.1 ± 0.2 |

same assay, conditions: increase-fold of cell survival; compound 0.0015 mg/mL, 300 µM H2O2, DU-145

| SMILES | Increase-fold |
| --- | --- |
| C=CCNC(=[Se])NC(=O)c1cccc(C(=O)NC(=[Se])NCC=C)c1 [Compound 10.II, N^1,N^3-bis(allylcarbamoselenoyl)isophthalamide] | 1.1 ± 0.2 |

tested on: MDA-MB-231, HT-29, HTB-54 and DU-145 cancer cell lines; experiment: MTT cell viability assay, statements over the panel of cancer cell lines; assay type: cell-based, human; details: in at least three of the four cancer cell lines tested
Procedure: as §1, §2, §3

| SMILES | cell growth |
| --- | --- |
| C=CCNC(=[Se])NC(=O)c1cccc(C(=O)NC(=[Se])NCC=C)c1 [Compound 10.II, N^1,N^3-bis(allylcarbamoselenoyl)isophthalamide] | below 55% |

tested on: DU-145 (prostate) cancer cell line; experiment: MTT cell viability assay, DU-145; assay type: cell-based, human; details: Homo sapiens, DU-145, 48 h, read-out: Cell growth %, DU-145, 10 µM, 48 h, MTT
Procedure: as §1, §2, §3

| SMILES | activity at 10 µM [%] |
| --- | --- |
| C=CCNC(=[Se])NC(=O)c1cccc(C(=O)NC(=[Se])NCC=C)c1 [Compound 10.II, N^1,N^3-bis(allylcarbamoselenoyl)isophthalamide] | 18.1 ± 2.7 |

same assay, conditions: Homo sapiens, DU-145, 48 h, read-out: Cell growth %, DU-145, 50 µM, 48 h, MTT

| SMILES | activity at 50 µM [%] |
| --- | --- |
| C=CCNC(=[Se])NC(=O)c1cccc(C(=O)NC(=[Se])NCC=C)c1 [Compound 10.II, N^1,N^3-bis(allylcarbamoselenoyl)isophthalamide] | 18.8 ± 3.1 |

tested on: MDA-MB-231 (breast) cancer cell line; experiment: MTT cell viability assay, MDA-MB-231; assay type: cell-based, human; details: Homo sapiens, MDA-MB-231, 48 h, read-out: Cell growth %, MDA-MB-231, 10 µM, 48 h, MTT
Procedure: as §1, §2, §3

| SMILES | activity at 10 µM [%] |
| --- | --- |
| C=CCNC(=[Se])NC(=O)c1cccc(C(=O)NC(=[Se])NCC=C)c1 [Compound 10.II, N^1,N^3-bis(allylcarbamoselenoyl)isophthalamide] | 24.8 ± 6.1 |
